Experimental data as given in US20240216401A1, “COMBINATION THERAPY BY USING AKR1C3-ACTIVATED COMPOUND WITH IMMUNE CHECKPOINT INHIBITOR” (OBI Pharma, Inc., priority 2021, published 2024).
“And” between values parts separate entries of the source, which are not always exact repeats. Identical values can stand only once.

Columns and labels:
[1] = Example 2: body weight of HepG2 tumor bearing humanized mice; assay type: in vivo, Mus musculus; details: for Body Weight: individual animal; for Body Weight (g) Mean: group mean
Experimental: 1. Species: Mus musculus • Strain: Advanced immunodeficiency mouse. • (NOD.CgPrkdc^scid Il2rg) • Source: Trineo Biotechnology Co., LTD.
Each group contains six mice. The human hepatocellular carcinoma cell line HepG2 were subcutaneously inoculated to the advanced immune-deficiency mice. Total of 42 mice were included in this study.
3.1. […] The injection was performed using insulin syringe with the dosage of 0.3 mg/kg or 1 mg/kg and the injection volume was 5 mL/kg. […] The reference item was administered for G1. The procedure followed the standards of sample administration. The starting day of test item administration was denoted as the first experimental day (DO).
3.2. […] The injection was performed using insulin syringe with the dosage of 20 mg/kg and injection volume of 10 mL/kg. […] The procedure followed the standards of sample administration.
The measurement was performed from the next day of the inoculation. The animal body weights were measured and recorded twice per week.

[2] = test system: Dendritic cells in tumor-infiltrating lymphocytes; test: Example 2: flow cytometry, percentage of Dendritic cells in TILs; assay type: in vivo, Mus musculus; details: individual animals and Mean
Experimental: Mice were sacrificed by CO2 euthanasia at the end of the study duration, and the connective tissue around tumor was resected. The tumor samples were then weighed and cut equally into three sections if the tumor weight over 400 mg. The tumor tissue was prepared for the isolation of tumor-infiltrating lymphocytes (TILs). The rest of one section was fixed in 10% formaldehyde and embedded in paraffin; the other was stored at a temperature below −70° C.
The tumor samples were dissected into smaller fragments using scalpels and then digested with a cocktail of collagenase, DNase I, and Hyaluronidase (Collagenase #C5138, DNase I #D5025, Hyaluronidase #H6254, SigmaAldrich) for at least 2 hours.
Cells were stained with the fluorescently conjugated surface antibodies and incubated for 30 minutes at 4° C., and then resuspended in staining buffer for flow cytometric analysis. Flow cytometry was done using a Navios EX Flow Cytometer (Beckman Coulter). Data were analyzed using the Kaluza Analysis Software (Beckman Coulter).

[3] = G2: OBI-3424 (0.3 mg/kg), 0.3 mg/kg
[4] = G2: OBI-3424 (0.3 mg/kg), 0.3 mg/kg, mean
[5] = G3: OBI-3424 (1 mg/kg), 1 mg/kg
[6] = G3: OBI-3424 (1 mg/kg), 1 mg/kg, mean

## C[C@H](OP(=O)(N1CC1)N1CC1)c1ccc([N+](=O)[O-])c(Oc2cccc(C(=O)N(C)C)c2)c1 [OBI-3424, (S)-1-(3-(3-N,N-dimethylaminocarbonyl)phenoxyl-4-mtrophenyl)-1-ethyl-N,N′-bis(ethylene)phosphoramidate]
[1]; G2: OBI-3424 0.3 mg/kg, D13 after test item administration, 0.3 mg/kg
  Body Weight: 23.96 g and 24.87 g
[1]; G2: OBI-3424 0.3 mg/kg, D16 after test item administration, 0.3 mg/kg
  Body Weight: 24.02 g and 24.56 g and 24.17 g
[1]; G2: OBI-3424 0.3 mg/kg, D20 after test item administration, 0.3 mg/kg
  Body Weight: 22.00 g and 24.21 g and 23.98 g
[1]; G2: OBI-3424 0.3 mg/kg, D23 after test item administration, 0.3 mg/kg
  Body Weight: 23.98 g
[1]; G2: OBI-3424 0.3 mg/kg, D30 after test item administration
  Body Weight (g) Mean: 22.06 g
[1]; G2: OBI-3424 0.3 mg/kg, D30 after test item administration, 0.3 mg/kg
  Body Weight: 20.17 g and 21.65 g
[1]; G2: OBI-3424 0.3 mg/kg, L0 after tumor cell injection, 0.3 mg/kg
  Body Weight: 20.66 g and 23.04 g and 25.00 g
[1]; G2: OBI-3424 0.3 mg/kg, L1 after tumor cell injection, 0.3 mg/kg
  Body Weight: 23.02 g
[1]; G2: OBI-3424 0.3 mg/kg, L3 after tumor cell injection
  Body Weight (g) Mean: 22.99 g
[1]; G2: OBI-3424 0.3 mg/kg, L7 after tumor cell injection, 0.3 mg/kg
  Body Weight: 23.01 g
[1]; G3: OBI-3424 1 mg/kg, D2 after test item administration, 1 mg/kg
  Body Weight: 20.20 g and 24.22 g
[1]; G3: OBI-3424 1 mg/kg, D6 after test item administration, 1 mg/kg
  Body Weight: 24.90 g
[1]; G3: OBI-3424 1 mg/kg, D9 after test item administration, 1 mg/kg
  Body Weight: 22.01 g and 24.85 g
[1]; G3: OBI-3424 1 mg/kg, D13 after test item administration, 1 mg/kg
  Body Weight: 25.97 g
[1]; G3: OBI-3424 1 mg/kg, D20 after test item administration, 1 mg/kg
  Body Weight: 24.21 g and 25.53 g and 21.98 g
[1]; G3: OBI-3424 1 mg/kg, D23 after test item administration
  Body Weight (g) Mean: 24.04 g
[1]; G3: OBI-3424 1 mg/kg, D23 after test item administration, 1 mg/kg
  Body Weight: 23.02 g and 25.37 g
[1]; G3: OBI-3424 1 mg/kg, D30 after test item administration, 1 mg/kg
  Body Weight: 22.02 g
[1]; G3: OBI-3424 1 mg/kg, L0 after tumor cell injection, 1 mg/kg
  Body Weight: 19.46 g
[1]; G3: OBI-3424 1 mg/kg, L3 after tumor cell injection, 1 mg/kg
  Body Weight: 20.70 g and 24.21 g and 20.80 g and 24.01 g
[1]; G3: OBI-3424 1 mg/kg, L7 after tumor cell injection, 1 mg/kg
  Body Weight: 24.22 g and 25.55 g
[2]; [3]
  CD86^+ DC cells (CD45^+CD11c^+CD86^+) Cell count: 6.36 ×10^5 and 14.34 ×10^5 and 27.59 ×10^5 and 1.25 ×10^5 and 15.63 ×10^5 and 4.71 ×10^5
  CD86^+ DC cells (CD45^+CD11c^+CD86^+) Total %: 3.27% and 7.01% and 5.11% and 5.82% and 6.34% and 6.50%
  CD91^+ DC cells (CD45^+CD11c^+CD91^+) Cell count: 0.18 ×10^5 and 0.16 ×10^5 and 0.54 ×10^5 and 0.02 ×10^5 and 0.22 ×10^5 and 0.04 ×10^5
  CD91^+ DC cells (CD45^+CD11c^+CD91^+) Total %: 0.09% (2×) and 0.08% (2×) and 0.10% and 0.06%
  DC cells (CD45^+CD11c^+) CD45+ Gated %: 32.90% and 30.81% and 44.83% and 19.60% and 24.30% and 36.70%
  DC cells (CD45^+CD11c^+) Cell count: 10.62 ×10^5 and 23.35 ×10^5 and 105.79 ×10^5 and 2.74 ×10^5 and 25.44 ×10^5 and 9.18 ×10^5
  DC cells (CD45^+CD11c^+) Total %: 5.46% and 11.42% and 19.59% and 12.80% and 10.32% and 12.66%
[2]; [4]
  CD86^+ DC cells (CD45^+CD11c^+CD86^+) Cell count: 11.65 ×10^5
  CD86^+ DC cells (CD45^+CD11c^+CD86^+) Total %: 5.68%
  CD91^+ DC cells (CD45^+CD11c^+CD91^+) Cell count: 0.19 ×10^5
  CD91^+ DC cells (CD45^+CD11c^+CD91^+) Total %: 0.08%
  DC cells (CD45^+CD11c^+) CD45+ Gated %: 31.52%
  DC cells (CD45^+CD11c^+) Cell count: 29.52 ×10^5
  DC cells (CD45^+CD11c^+) Total %: 12.04%
[2]; [5]
  CD86^+ DC cells (CD45^+CD11c^+CD86^+) Cell count: 2.23 ×10^5 and 10.59 ×10^5 and 5.46 ×10^5 and 6.73 ×10^5 and 6.98 ×10^5 and 7.11 ×10^5
  CD86^+ DC cells (CD45^+CD11c^+CD86^+) Total %: 7.68% and 8.39% and 7.73% and 6.81% and 9.38% and 8.78%
  CD91^+ DC cells (CD45^+CD11c^+CD91^+) Cell count: 0.04 ×10^5 (2×) and 0.10 ×10^5 and 0.06 ×10^5 (2×) and 0.08 ×10^5
  CD91^+ DC cells (CD45^+CD11c^+CD91^+) Total %: 0.14% and 0.08% (2×) and 0.09% and 0.06% and 0.07%
  DC cells (CD45^+CD11c^+) CD45+ Gated %: 23.54% and 31.09% and 41.01% and 19.89% and 35.18% and 28.58%
  DC cells (CD45^+CD11c^+) Cell count: 4.40 ×10^5 and 23.57 ×10^5 and 13.84 ×10^5 and 12.22 ×10^5 and 16.67 ×10^5 and 14.15 ×10^5
  DC cells (CD45^+CD11c^+) Total %: 15.16% and 18.68% and 19.60% and 12.37% and 22.41% and 17.47%
[2]; [6]
  CD86^+ DC cells (CD45^+CD11c^+CD86^+) Cell count: 6.52 ×10^5
  CD86^+ DC cells (CD45^+CD11c^+CD86^+) Total %: 8.13%
  CD91^+ DC cells (CD45^+CD11c^+CD91^+) Cell count: 0.06 ×10^5
  CD91^+ DC cells (CD45^+CD11c^+CD91^+) Total %: 0.09%
  DC cells (CD45^+CD11c^+) CD45+ Gated %: 29.88%
  DC cells (CD45^+CD11c^+) Cell count: 14.14 ×10^5
  DC cells (CD45^+CD11c^+) Total %: 17.62%
